We go through three compounds from PMC12631937, “Autologous Organoid‐T Cell Co‐Culture Platform for Modeling of Immune‐Mediated Drug‐Induced Liver Injury” (Advanced Science, 2025).

Molecules are shown by their SMILES. pIC50: −log10 of the molar value.

The subject of series [1] is HLO microarrays (iPSC-derived human liver organoids). The experiment in a line: HLO microarray cytotoxicity, DRAQ7-positive nuclei (dead cells). Type of series: cell-based. Conditions: 168 h, seven-day repeated-dose treatment, Figure 2C, read-out: Cell death (% Draq7+ cells) IC50. The method, then:
HLO microarrays were exposed to seven‐day repeated‐dose treatment of Chlorpromazine and Flucloxacillin across five half‐log‐spaced concentrations, with vehicle‐treated wells serving as controls. Following treatment, cell viability was assessed by quantifying total cellular ATP content using the CellTiter‐Glo assay, while cytotoxicity was determined by counting DRAQ7‐positive nuclei (dead cells) in organoids. Hepatic functionality was further evaluated by measuring albumin secretion in the culture supernatant via ELISA (Figure 2A). Chlorpromazine (Sigma) and Streptomycin (MCE) were dissolved in DMSO, and 5–7 serial dilutions of 200 × stock solutions were prepared alongside corresponding vehicle controls (0.5% DMSO). Aliquots were frozen to ensure consistency across experiments. On the day of treatment, aliquots were thawed and diluted in liver maturation medium to achieve final working concentrations. […] Dose‐response curves and IC50 values were determined by nonlinear regression of log‐transformed compound concentrations (6‐8 point serial dilutions including vehicle) against normalized viability data. […] To contextualize in vitro toxicity data with human exposure levels, Margin of Safety (MOS) values were calculated as the ratio of the in vitro IC50 to the compound's reported clinical maximum plasma concentration (MOS = IC50 / Cmax).

For series [2] the test system is unchanged. The experiment in a line: cells. The method, then: HLO microarrays were exposed to seven‐day repeated‐dose treatment of Chlorpromazine and Flucloxacillin across five half‐log‐spaced concentrations, with vehicle‐treated wells serving as controls. Following treatment, cell viability was assessed by quantifying total cellular ATP content using the CellTiter‐Glo assay, while cytotoxicity was determined by counting DRAQ7‐positive nuclei (dead cells) in organoids. Hepatic functionality was further evaluated by measuring albumin secretion in the culture supernatant via ELISA (Figure 2A).
Chlorpromazine (Sigma) and Streptomycin (MCE) were dissolved in DMSO, and 5–7 serial dilutions of 200 × stock solutions were prepared alongside corresponding vehicle controls (0.5% DMSO). Aliquots were frozen to ensure consistency across experiments. On the day of treatment, aliquots were thawed and diluted in liver maturation medium to achieve final working concentrations. Flucloxacillin (Sigma) was freshly prepared in liver maturation medium immediately prior to each dosing. HLO microarrays were treated over a 7‐day period, with a single re‐dosing and media refreshment on day 3. The highest concentrations tested for all compounds were 1000 µM.
Cell viability was assessed on day 7 using the CellTiter‐Glo 3D Cell Viability Assay (Promega, Cat. G9682). Luminescence was recorded using a Spectra Max iD3 microplate reader (Molecular Devices) following the manufacturer's recommended settings. Viability data from compound‐treated HLOs were normalized to the corresponding vehicle controls on the same plate.
Dose‐response curves and IC50 values were determined by nonlinear regression of log‐transformed compound concentrations (6‐8 point serial dilutions including vehicle) against normalized viability data. Curve fitting was performed using a variable Hill slope and constraining the top and bottom of the curve to 100 and 0, respectively (GraphPad Prism, GraphPad Software, La Jolla, CA, USA). To contextualize in vitro toxicity data with human exposure levels, Margin of Safety (MOS) values were calculated as the ratio of the in vitro IC50 to the compound's reported clinical maximum plasma concentration (MOS = IC50 / Cmax).

For series [3] the test system is unchanged. Description: Albumin secretion of HLO microarrays in culture supernatant (ELISA). Type of series: cell-based. Conditions: 168 h, seven-day repeated-dose treatment, Figure 2E, read-out: Albumin release (% of control) IC50. The text has this:
Hepatic functionality was further evaluated by measuring albumin secretion in the culture supernatant via ELISA (Figure 2A). […] Aliquots were frozen to ensure consistency across experiments. On the day of treatment, aliquots were thawed and diluted in liver maturation medium to achieve final working concentrations. Flucloxacillin (Sigma) was freshly prepared in liver maturation medium immediately prior to each dosing.
In general terms: ELISA stands for enzyme-linked immunosorbent assay.

For series [4] the following is noted: reported clinical Cmax; cited from earlier work.
Series [5] concerns CD8+ T cells. Description: Monocyte-derived dendritic cell (mDC) priming assay of naïve CD8+ T cells, flow cytometry. Type of series: cell-based, human. From the text:
Peripheral blood samples were collected from four HLA‐B*57:01 carriers and four HLA‐B*57:01 non‐carrier donors (Figure 4B). To generate antigen‐specific CD8⁺ T cells, we employed a monocyte‐derived dendritic cell (mDC) priming assay (Figure 4A). Naïve CD8⁺ T cells and monocytes were isolated from peripheral blood mononuclear cells (PBMCs) of each donor. mDCs were differentiated using IL‐4 and GM‐CSF, followed by maturation and activation with LPS and IFN‐γ. Mature mDCs were then loaded with Flucloxacillin or media alone and used to prime naïve CD8⁺ T cells. After priming, CD8⁺ T cells (i.e., Flucloxacillin‐primed CD8^+ T cells) were expanded in the presence of a low dose of IL‐15 for 10 days, followed by CFSE labeling and re‐stimulation with freshly loaded mDCs under the same conditions. Flow cytometry was used to assess CD8⁺ T cell maturation, proliferation, and post‐priming activation. […] T cell antigen‐specific activation efficacy was evaluated using multi‐color flow cytometry with Diva and FlowJo (BD software). T cell proliferation and activation were assessed using CFSE (1 µM, ThermoFisher) for proliferation, Human TruStain FcX for Fc receptor blocking, and a panel of antibodies including CD3 (clone UCHT1), CD8 (clone 3B5), CD4 (clone RPA‐T4), CD45RO (clone UCHL1), CD107a (clone H4A3), HLA‐DR (clone TU36), CD137 (clone 4B4), and CD69 (clone FN50). […]
For orientation: In flow cytometry, cells or beads pass a laser one at a time.

Series [6] concerns HLOs co-cultured with autologous Flucloxacillin-primed CD8+ T cells. Description: Autologous HLO - CD8+ T cell co-culture, immune-mediated hepatocyte injury. It is filed as cell-based, human. The method, then: To model immune‐mediated liver injury, Flucloxacillin‐primed CD8⁺ T cells from three HLA‐B*57:01 carrier and three HLA‐B*57:01 non‐carrier donors were co‐cultured with autologous HLOs pre‐treated with Flucloxacillin (Figure 5A). Co‐cultures with unprimed CD8⁺ T cells served as controls to exclude non‐specific T cell reactivity. HLOs were generated from iPSC lines derived from donor PBMCs and exposed to 100 µM Flucloxacillin for 72 h before initiating co‐culture. On day 23 of maturation, HLOs were co‐cultured with unprimed or Flux‐primed CD8⁺ T cells to assess immune‐mediated hepatocyte injury. Liver damage was quantified using immunofluorescence‐based detection of DRAQ7⁺ dead cells and measurement of cytokeratin‐18 (CK‐18) release, a highly specific biomarker of early‐stage DILI. CK‐18, an intermediate filament protein expressed in hepatocytes and cholangiocytes but absent in immune cells, provided greater specificity for hepatocyte death than traditional markers such as LDH or ATP.
Culture supernatants were analyzed to quantify albumin and CK18 levels using sandwich ELISA kits (Albumin, Abcam, and M65 EpiDeath CK18Diapharma) according to manufacturer's protocols. TNFα and Granzyme B secretion were measured using the Luminex Discovery Assay kit (R&D Systems/Biotechne) according to the manufacturer's protocol.
Following initial 12 day priming as described above, CD8^+ T cells were stained with CFSE (5 µM, Fisher Scientific, Catalog No. 11‐0699‐42) and resuspended in an optimized co‐culture media. This media consisted of a 1:1 mixture of complete RPMI (RPMI + 1% penicillin/streptomycin and 150 IU mL^−1 IL‐2) and modified liver maturation media (excluding HGF, dexamethasone and hydrocortisone) supplemented with 10 IU mL^−1 IL‐7 and 10 IU/ml IL‐15. Labeled CD8⁺ T cells were added to mature (day 23) HLO microarray cultures at effector‐to‐target (E:T) ratios of 1:1 and 1:5. These ratios were chosen to reflect the localized enrichment of cytotoxic lymphocytes observed during immune‐mediated liver injury, including periportal CD8⁺ T cell infiltration in flucloxacillin‐induced DILI (PMID: 24 731 753).^[ [14] ^] Prior to co‐culture, HLO were pretreated with 100 µM Flucloxacillin for 72 h. The co‐culture was maintained for 72 h with media exchanges performed every 24 h. When indicated, T cell activation was induced using anti‐CD3 (1 µg ml^−1, BioLegend) and anti‐CD28 (1 µg ml^−1, BioLegend) antibodies.

The mark [7] stands for this setting: Homo sapiens, 168 h, read-out: Cell Viability (% of control) IC50, ATP-based, seven-day repeated-dose treatment, Figure 2D.
Where [8] appears, read: Homo sapiens, read-out: average IC50, average across three independent iPSC-derived HLO lines (donors), Figure S2.

With `CN(C)CCCN1c2ccccc2Sc2ccc(Cl)cc21` [Chlorpromazine], the pIC50 is 4.71 in series [1]; 4.84 in series [2] (setting [7]); 4.95 in series [2] (setting [8]); 4.84 in series [2] (read-out: Cell Viability (% of control) IC50, ATP-based, seven-day repeated-dose treatment, Figure 2D); 5.20 in series [3]. Moreover, the “margin of safety (MOS = IC50 / Cmax)” value in series [2] (human, 7 days) is on record as “≈ 15.3”. Also, the Cmax in series [4] was around 0.94 µM.
On to `Cc1onc(-c2c(F)cccc2Cl)c1C(=O)N[C@@H]1C(=O)N2[C@@H]1SC(C)(C)[C@@H]2C(=O)O` [Flucloxacillin], for which the pIC50 in series [1], in series [2] (setting [7]) and in series [3] was below 3.00 in each case. Also, in series [2], the “cytotoxicity at clinically relevant exposures” value is recorded as “no cytotoxicity”. Besides, the “CD8+ T cell response to priming” value in series [5] (HLA-B*57:01 non-carrier donors) is “did not exhibit a comparable response”. In addition, the “increase in T cell proliferation (CFSElow cells) and activation marker expression relative to media-alone priming” value in series [5] (two of four HLA-B*57:01-positive donors (robust responders), DCs pulsed with 1000 µM) is “over 2 fold”. In addition, in series [6] (primed CD8+ T cells from HLA-B*57:01 carrier donors 534 and 622), the “secretion of TNF-α and Granzyme B” value is recorded as “increased secretion”. Moreover, the CK-18 release result in series [6] (primed CD8+ T cells from HLA-B*57:01 carrier donors 534 and 622, HLOs pre-treated with 100 µM for 72 h) is “significantly elevated”. Also, the “increase in DRAQ7+ cell death compared to T cell-free controls” value in series [6] (primed CD8+ T cells from HLA-B*57:01 carrier donors 534 and 622, HLOs pre-treated with 100 µM for 72 h, 72 h co-culture) came out at 4 fold. The “hepatocyte death or CK-18 release” value in series [6] (primed T cells from weak-responder HLA-B*57:01 carriers and all non-carrier donors) was “failed to induce hepatocyte death”. For the same compound, in series [4], the Cmax is around 31 µM.
On to `[H]/N=C(/N)N[C@H]1[C@H](O)[C@@H](O)[C@H](O[C@@H]2O[C@@H](C)[C@](O)(C=O)[C@H]2O[C@@H]2O[C@@H](CO)[C@H](O)[C@@H](O)[C@@H]2NC)[C@@H](N/C(N)=N\[H])[C@@H]1O` [Streptomycin], for which, in series [2], the “cytotoxicity at clinically relevant exposures” value is listed as “no cytotoxicity”. Also, the pIC50 in series [2] (setting [8]) is 3.47. The Cmax in series [4] is around 72.2 µM.

For orientation: pIC50 means the IC50 on a negative log10 scale, so that one unit is a factor of ten. For orientation: Cmax means the maximum level reached in the sampled fluid or tissue.
